From PMC7997574, “Lead Optimization of Benzoxazolone Carboxamides as Orally Bioavailable and CNS Penetrant Acid Ceramidase Inhibitors” (Journal of Medicinal Chemistry, 2020)
Where two headings read alike, the source gives them in different places.

Experiments:
[1] = biological target: T1, human fatty acid amide hydrolyase (FAAH) (Homo sapiens, UniProt O00519); test: Fluorogenic hFAAH assay; type: biochemical
T1 construct: expressed in transfected cells
T1 sequence (O00519 1-579): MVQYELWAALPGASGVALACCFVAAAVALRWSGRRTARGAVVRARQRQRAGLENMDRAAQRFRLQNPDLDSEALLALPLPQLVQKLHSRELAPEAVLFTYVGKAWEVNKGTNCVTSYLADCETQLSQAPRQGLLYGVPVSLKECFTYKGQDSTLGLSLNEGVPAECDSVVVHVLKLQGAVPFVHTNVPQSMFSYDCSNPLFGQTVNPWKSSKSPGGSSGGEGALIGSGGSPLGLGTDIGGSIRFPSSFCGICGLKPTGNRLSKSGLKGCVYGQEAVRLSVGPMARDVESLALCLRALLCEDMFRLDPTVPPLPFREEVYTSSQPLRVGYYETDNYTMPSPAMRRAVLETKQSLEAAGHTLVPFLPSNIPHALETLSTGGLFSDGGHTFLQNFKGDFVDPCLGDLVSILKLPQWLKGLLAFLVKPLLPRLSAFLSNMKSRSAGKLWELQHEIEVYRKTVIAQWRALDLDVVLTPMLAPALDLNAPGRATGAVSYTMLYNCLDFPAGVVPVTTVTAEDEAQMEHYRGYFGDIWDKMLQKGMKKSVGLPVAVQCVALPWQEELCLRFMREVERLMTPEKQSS
Experimental: hFAAH was obtained from a HEK-293 FAAH-1 overexpressing stable cell line. Cells were grown in Dulbecco’s modified Eagle medium (DMEM) containing 10% FBS, 1% penicillin/streptomycin, 1% glutamine, 1 mM sodium pyruvate, and 500 μg mL^–1 G418. Cells were harvested, and pellets were stored at −80 °C until membrane-enriched lysate preparation. The cell pellet was resuspended in 20 mM Tris HCl (pH 7.4, 0.32 M sucrose), sonicated, and centrifuged at 1000 × g (10 min, 4 °C). The collected supernatant was centrifuged at 12000 × g for 10 min at 4 °C, and the supernatants were further centrifuged at 100000 × g for 1 h at 4 °C. Membrane pellets were resuspended in PBS, protein concentration was measured, and samples were aliquoted and stored at −80 °C until use.
The fluorescence assay to measure FAAH activity was performed in 96-well black plates (Black OptiPlate-96F; PerkinElmer, Massachusetts, USA): 2.5 μg of hFAAH membrane preparation was preincubated for 50 min at 37 °C in 190 μL of assay buffer (50 mM Tris HCl pH 7.4, 0.05% fatty acid free BSA), with 5 μL of inhibitor or 5 μL of DMSO to measure FAAH total activity. […] The reaction was carried out for 45 min at 37 °C, and fluorescence was measured with an EnVision 2014 Multilabel Reader (PerkinElmer, Massachusetts, USA) (excitation wavelength 355 nm/emission wavelength 460 nm). […]

[2] = Plasma and brain concentrations in 4L;C* mice; type: in vivo, mouse; conditions: 1 h after last dose (day 14)
Experimental: 4L;C* mice (C57BL/6 J/129SvEV) were randomly assigned to three treatment groups (N = 4–8 with mixed males and females) and dosed once a day i.p. with 90 or 30 mg kg^–1 of 22m or vehicle. Treatment started at 5 days of age for a duration of 14 days. The application volume was set to 10 μL per gram of body weight, and dosage was adjusted accordingly. Animals of all groups were sacrificed 1 h after the last dose, and the brain tissues and plasma were collected. The left brain containing cortex, cerebella, thalamus, and brainstem was analyzed for SphL levels by MS. Data were analyzed using the Student t test. The right brain containing cortex, cerebella, thalamus, and brainstem and plasma were analyzed for drug levels of 22m. All mice were housed under pathogen-free conditions in the animal facility, and animal experiment was performed according to the IACUC approved protocol (2018-0056) at Cincinnati Children’s Hospital Research Foundation. Wild Type (WT) (GALC+/+) and Twitcher (Twi) (GALC–/−) mice were genotyped by PCR as previously described.[58] Twi mice were randomly assigned to three treatment groups (N = 3 males + N = 3 females for each group) and dosed once a day i.p. with 90 or 30 mg kg^–122m or vehicle for a duration of 20 days. Treatment started at 10 days of age. The application volume was set to 10 μL per gram of body weight, and dosage was adjusted accordingly. Two groups (N = 3 males + N = 3 females for each group) of WT controls treated with vehicle or high dose (90 mg kg^–1) of 22m were also included in the study. Animals of all groups were sacrificed 1 h after the last dose, and the brain tissues and plasma were collected. The left brain containing cortex, cerebella, thalamus, and brainstem was analyzed for SphL levels by MS. Data were analyzed using the Student t test. The right brain containing cortex, cerebella, thalamus, and brainstem and plasma were analyzed for drug levels of 22m. All animal work in this study was performed in accordance with approved animal protocols from the Animal Care and Use Committee at the University of Illinois at Chicago.

Question: What does the source list for `CC(C)CNC(=O)n1c(=O)oc2cc(C3CCN(C)CC3)ccc21` [22m, N-Isobutyl-6-(1-methyl-4-piperidyl)-2-oxo-1,3-benzoxazole-3-carboxamide]?
Answer: IC50 [1]: 70 nM; concentration at 1 h ([2]; 4L;C* mice, 90 mg kg^–1 i.p., read-out: Cb, u (μM) brain unbounded concentration): 2.61 µM; concentration at 1 h ([2]; both sexes, 4L;C* (C57BL/6 J/129SvEV), mouse, brain, ip, 30 mg kg^–1, 4L;C* mice, 30 mg kg^–1 i.p., read-out: Cb (μM) brain concentration): 110 µM; concentration at 1 h ([2]; both sexes, 4L;C* (C57BL/6 J/129SvEV), mouse, brain, ip, 30 mg kg^–1, 4L;C* mice, 30 mg kg^–1 i.p., read-out: Cb, u (μM) brain unbounded concentration): 0.77 µM; concentration at 1 h ([2]; both sexes, 4L;C* (C57BL/6 J/129SvEV), mouse, brain, ip, 90 mg kg^–1, 4L;C* mice, 90 mg kg^–1 i.p., read-out: Cb (μM) brain concentration): 373 µM; concentration at 1 h ([2]; both sexes, 4L;C* (C57BL/6 J/129SvEV), mouse, brain, ip, 90 mg kg^–1, 4L;C* mice, 90 mg kg^–1 i.p., read-out: Cb, u (μM) brain unbounded concentration): 2.6 µM; concentration at 1 h ([2]; both sexes, 4L;C* (C57BL/6 J/129SvEV), mouse, plasma, ip, 30 mg kg^–1, 4L;C* mice, 30 mg kg^–1 i.p., read-out: Cp (μM) plasma concentration): 3.08 µM; concentration at 1 h ([2]; both sexes, 4L;C* (C57BL/6 J/129SvEV), mouse, plasma, ip, 30 mg kg^–1, 4L;C* mice, 30 mg kg^–1 i.p., read-out: Cp,u (μM) plasma unbounded concentration): 0.42 µM; concentration at 1 h ([2]; both sexes, 4L;C* (C57BL/6 J/129SvEV), mouse, plasma, ip, 90 mg kg^–1, 4L;C* mice, 90 mg kg^–1 i.p., read-out: Cp (μM) plasma concentration): 16.8 µM; concentration at 1 h ([2]; both sexes, 4L;C* (C57BL/6 J/129SvEV), mouse, plasma, ip, 90 mg kg^–1, 4L;C* mice, 90 mg kg^–1 i.p., read-out: Cp,u (μM) plasma unbounded concentration): 2.32 µM
